# Tested on: metastatic renal cell carcinoma
# Experiment: Treatment of patients with metastatic renal cell carcinoma by 1 hour infusion of the liposomal composition
# Assay type: in vivo, man
# Settings: a patient with renal cell carcinoma with multiple small pulmonary metastases
# Experimental: 12 patients diagnosed as having metastatic renal cell carcinoma were given the liposomal composition in accordance with Example 2 at various dosage levels of the active ingredient by 1 hour infusion in 50 ml of isotonic saline through a safety filter twice a week for a total of 8 doses.
smiles,measurement,value
"CCCCCCCCCCCCCCCC(=O)OCC(COP(=O)([O-])OCCNC(=O)C(C)NC(=O)CCC(NC(=O)C(C)NC(=O)C(C)OC1C(O)C(CO)OC(O)C1NC(C)=O)C(N)=O)OC(=O)CCCCCCCCCCCCCCC.[Na+] [N-acetylmuramyl-L-alanyl-D-isoglutaminyl-L-alanine-2-(1,2-dipalmitoyl-sn-glycero-3-hydroxyphosphoryloxy)ethylamide monosodium salt]",size of lesions,reduce the size of lesions

# — US4994440A, “Method for the treatment of renal cell carcinoma” (priority 1989, dated 1991)
